Measured values: patent US8629147B2, “Heterocyclic compounds useful in the treatment of neoplastic diseases, inflammatory disorders and immunomodulatory disorders” (ChemBridge Corporation, priority 2005, dated 2014)

Tests used:
[1] = target: T1, human IGF1R kinase domain (Homo sapiens, UniProt P08069); experiment: IGF1R tyrosine phosphorylation inhibition, Alphascreen phosphotyrosine PT66 assay; type: biochemical; settings: recombinant kinase domain, 1 hour co-incubation, 20 to 0.1 μM
T1 construct: human IGF1R precursor protein corresponding to the amino acids positions 974 through 1293; 6xHis; made in house; host or cells: SF9 insect cells, recombinant baculovirus (Bac-to-Bac System)
Experimental: Inhibition of IGF1R tyrosine phosphorylation was measured in the Alphascreen phosphotyrosine PT66 assay kit (Perkin Elmer Life sciences, Catalog number 6760602) according to the manufacturer's instructions. As a source of enzymatically active IGF1r kinase for this assay, SF9 insect cells were infected with recombinant baculovirus (Bac-to-Bac System, Invitrogen, Carlsbad, Calif.) encoding 6×His-tagged kinase domain portion of human IGF1R precursor protein corresponding to the amino acids positions 974 through 1293 (Abbott et al., 1992, J. Biol. Chem. 267:10759-10763) and recombinant kinase protein was purified to homogeneity using two-step chromatography on immobilized Ni^2+ resin (Ni-NTA) and ion-exchange Q-Sepharose column. Biotinylated poly glu-tyr 4:1 (CIS bio-international, catalog number 61GT0BLA) was used for the kinase substrate. Compounds were serially diluted to give a concentration range from 20 to 0.1 μM and co-incubated with IGF1r kinase, biotinylated peptide substrate and alphascreen components for 1 hour and then read in a Perkin-Elmer alphafusion plate reader. A plot of counts per minute versus log concentration of compounds was fitted to a sigmoidal dose response curve using Graphpad Prism software to generate IC50 values (see FIG. 1 for an example).

[2] = test system: MCF7 human breast tumor cells; experiment: CellTiter-Glo luminescent cell viability assay, MCF7; type: cell-based; settings: 48 hours, 20 to 0.1 μM
Experimental: (§1) Cell viability of either MCF7 human breast tumor cells (American Type Culture Collection catalog #HTB 22) or NCI-H929 human plasmacytoma cells (ATCC catalog #CRL-9068) was assessed using the Promega CellTiter-Glo luminescent cell viability assay according to manufacturer's instructions. In brief, cells were plated at 10,000 cells per well in a clear bottom white 96 well microtiter plate (Costar catalog #3604) in 100 μL of cell growth medium. Compounds were then added to the cells to give final concentrations of compound ranging from 20 to 0.1 μM. Cells were incubated 48 hours after which 100 μL per well of celltiter-glo reagent was added and luminescence was measured in a BMG polarstar plate luminometer. A plot of counts per minute versus log concentration of compounds was fitted to a sigmoidal dose response curve using Graphpad Prism software to generate IC50 values.

[3] = test system: NCI-H929 human plasmacytoma cells; experiment: CellTiter-Glo luminescent cell viability assay, NCI-H929; type: cell-based; settings: 48 hours, 20 to 0.1 μM
Experimental: as §1

T1 sequence (P08069 974-1293): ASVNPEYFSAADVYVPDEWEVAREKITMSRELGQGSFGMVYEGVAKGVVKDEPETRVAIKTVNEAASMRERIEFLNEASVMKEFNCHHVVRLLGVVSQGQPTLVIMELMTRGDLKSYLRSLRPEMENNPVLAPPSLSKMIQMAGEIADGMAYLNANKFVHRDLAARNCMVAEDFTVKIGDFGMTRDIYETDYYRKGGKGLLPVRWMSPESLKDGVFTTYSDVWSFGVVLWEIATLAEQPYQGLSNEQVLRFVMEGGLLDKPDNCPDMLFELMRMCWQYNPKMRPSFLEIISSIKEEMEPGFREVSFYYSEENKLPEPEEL

SMILES	IC50 [1] [µM]	IC50 [2] [µM]	IC50 [3] [µM]
CN1CCN(c2ccc3nc(-c4ccc(OCc5ccccc5)cc4O)[nH]c3c2)CC1	≤ 5	10 to 15	> 25
COc1ccc2c(c1)CCc1cnc(-n3cc(C(=O)NC4CCN(CCCc5ccncc5)CC4)c(N)n3)nc1-2	≤ 5	5 to 10	≤ 5
CC1CCN(CCc2ccc(NC(=O)c3cn(-c4cccc(-c5ccc(N(C)C)cc5)n4)nc3N)cc2)CC1	≤ 5	5 to 10	5 to 10
CN1CCCC2(CCCN(CCc3ccc(NC(=O)c4ccc5nc(-c6cc(-c7cccnc7O)ccc6O)[nH]c5c4)cc3)C2)C1 (stereo not drawn) [drawing 1788]	≤ 5	10 to 15	≤ 5
CN1CCN(c2ccc3nc(-c4cc(-c5ccc(N(C)C)cc5)ccc4O)[nH]c3c2)CC1	≤ 5	10 to 15	5 to 10
CN1CCN(CCc2ccc(NC(=O)c3cn(-c4nccc(-c5ccc(N(C)C)cc5)n4)nc3N)cc2)CC1	≤ 5	10 to 15	5 to 10
CN1CCN(CCc2ccc(NC(=O)c3ccc4nc(-c5nc6ccccc6[nH]5)[nH]c4c3)cc2)CC1	≤ 5	> 25	5 to 10
COc1ncccc1-c1ccc(O)c(-c2nc3ccc(C(=O)Nc4ccc(CCN5CCCC6(CCCN(C)C6)C5)cc4)cc3[nH]2)c1 (stereo not drawn)	≤ 5	5 to 10	≤ 5
COc1ncccc1-c1ccc(O)c(-c2nc3ccc(C(=O)Nc4ccc(CCN5CCN(C)CC5)cc4)cc3[nH]2)c1	≤ 5	5 to 10	≤ 5
COc1ccc2c(c1)CCc1cnc(-n3cc(C(=O)Nc4ccc(CCN5CCN6CCC[C@H]6C5)cc4)c(N)n3)nc1-2	≤ 5	10 to 15	5 to 10
